Drawing on PubChem BioAssay AID1259411 (Chemical Carcinogenesis Research Information System (CCRIS), 2018), this text covers carcinogen call for seven compounds.

Active and inactive are the calls of the source. No rule for the calls is given here.

The data set relates to rodent carcinogenicity bioassays, tumor incidence. Nature of the data set: CCRIS carcinogenicity studies. The method in brief: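 NCI-built, expert-reviewed records of carcinogenicity and related test outcomes (mutagenicity, tumor promotion/inhibition) compiled from published and report sources, historical span 1985-2011, not updated.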

For the compound `Clc1ccc(Cl)c(-c2cc(Cl)ccc2Cl)c1`, the carcinogen call is, setting by setting: (Species: MOUSE, Strain/Sex: STRAIN-A/FEMALE, Route: INTRAPERITONEAL, Dose: 0, 0.1, 0.2 UMOL/UL OF DMSO 5, 10 AND 20 µL GIVEN ON DAYS 4, 8 AND 15 AFTER BIRTH, RESPECTIVELY (STUDY DURATION: 28 WK), Dose: 0, 0.1, 0.2 UMOL/UL OF DMSO 5, 10 AND 20 µL GIVEN ON DAYS 4, 8 AND 15 AFTER BIRTH, RESPECTIVELY (STUDY DURATION: 28 WK)) “inactive; negative”; (Species: MOUSE, Strain/Sex: STRAIN-A/MALE, Route: INTRAPERITONEAL, Dose: 0, 0.1, 0.2 UMOL/UL OF DMSO 5, 10 AND 20 µL GIVEN ON DAYS 4, 8 AND 15 AFTER BIRTH, RESPECTIVELY (STUDY DURATION: 28 WK), Dose: 0, 0.1, 0.2 UMOL/UL OF DMSO 5, 10 AND 20 µL GIVEN ON DAYS 4, 8 AND 15 AFTER BIRTH, RESPECTIVELY (STUDY DURATION: 28 WK)) “inactive; negative”.

Regarding `O=Cc1ccco1`, the carcinogen call by setting is: (Species: MOUSE, Strain/Sex: B6C3F1/FEMALE, Route: GAVAGE, Dose: 0, 50, 100, 175 MG/KG IN CORN OIL 5 D/WK FOR 103 WK (STUDY DURATION: 105 WK), Dose: 0, 50, 100, 175 MG/KG IN CORN OIL 5 D/WK FOR 103 WK (STUDY DURATION: 105 WK), Tumor Site: Type of Lesion: LIVER: HEPATOCELLULAR ADENOMA, HEPATOCELLULAR ADENOMA OR CARCINOMA, FORESTOMACH: SQUAMOUS PAPILLOMA) “active; positive”; (Species: MOUSE, Strain/Sex: B6C3F1/MALE, Route: GAVAGE, Dose: 0, 50, 100, 175 MG/KG IN CORN OIL 5 D/WK FOR 103 WK (STUDY DURATION: 105 WK), Dose: 0, 50, 100, 175 MG/KG IN CORN OIL 5 D/WK FOR 103 WK (STUDY DURATION: 105 WK), Tumor Site: Type of Lesion: LIVER: HEPATOCELLULAR ADENOMA, HEPATOCELLULAR CARCINOMA) “active; positive”; (Species: MOUSE, Strain/Sex: CD-1/FEMALE, Route: DERMAL, Dose: 0, 50 UMOL/0.1 ML DMSO 2/WK FOR 5 WK FOLLOWED 1 WK LATER BY 0.1 ML ACETONE 2/WK FOR 47 WK (STUDY DURATION: 52 WK)) “inactive; negative”; (Species: RAT, Strain/Sex: F344/FEMALE, Route: GAVAGE, Dose: 0, 30, 60 MG/KG IN CORN OIL 5 D/WK FOR 103 WK (STUDY DURATION: 105 WK), Dose: 0, 30, 60 MG/KG IN CORN OIL 5 D/WK FOR 103 WK (STUDY DURATION: 105 WK)) “inactive; negative”; (Species: RAT, Strain/Sex: F344/MALE, Route: GAVAGE, Dose: 0, 30, 60 MG/KG IN CORN OIL 5 D/WK FOR 103 WK (STUDY DURATION: 105 WK), Dose: 0, 30, 60 MG/KG IN CORN OIL 5 D/WK FOR 103 WK (STUDY DURATION: 105 WK), Tumor Site: Type of Lesion: BILE DUCT: CHOLANGIOCARCINOMA) “active; positive”.

For the compound `OC(Cn1cncn1)(c1ccc(F)cc1)c1ccccc1F` (configuration not stated), the carcinogen call was “inactive; negative” (Species: Mouse, Strain/Sex: C57BL/10JfCD-1/Alpk (C57BL/10J)/Female (50/Group), Route: Oral, Dose: 0, 10, 50, 200 ppm (0; 1.5; 7.5; 30 mg/kg/day) of 93% flutriafol in diet for 2 yr, study duration 2 yr, Dose: 0, 10, 50, 200 ppm (0; 1.5; 7.5; 30 mg/kg/day) of 93% flutriafol in diet for 2 yr, study duration 2 yr); “inactive; negative” (Species: Mouse, Strain/Sex: C57BL/10JfCD-1/Alpk (C57BL/10J)/Male (50/Group), Route: Oral, Dose: 0, 10, 50, 200 ppm (0; 1.5; 7.5; 30 mg/kg/day) of 93% flutriafol in diet for 2 yr, study duration 2 yr, Dose: 0, 10, 50, 200 ppm (0; 1.5; 7.5; 30 mg/kg/day) of 93% flutriafol in diet for 2 yr, study duration 2 yr); “inactive; negative” (Species: Rat, Strain/Sex: Alpk:AP/Female (52/Group), Route: Oral, Dose: 0, 20, 200, 2000 ppm (0; 1; 10; 100 mg/kg/day) of 93% flutriafol in diet for 104 wk, study duration 104 wk, Dose: 0, 20, 200, 2000 ppm (0; 1; 10; 100 mg/kg/day) of 93% flutriafol in diet for 104 wk, study duration 104 wk); “inactive; negative” (Species: Rat, Strain/Sex: Alpk:AP/Male (52/Group), Route: Oral, Dose: 0, 20, 200, 2000 ppm (0; 1; 10; 100 mg/kg/day) of 93% flutriafol in diet for 104 wk, study duration 104 wk, Dose: 0, 20, 200, 2000 ppm (0; 1; 10; 100 mg/kg/day) of 93% flutriafol in diet for 104 wk, study duration 104 wk).

Consider `OCc1ccn2c1[C@H](O)CC2`, for which the carcinogen call (Species: MOUSE, Strain/Sex: SWISS/FEMALE, Route: DERMAL/SUBCUTANEOUS, Dose: 0, 20 MG/KG IN 0.2 ML ACETONE TO SHAVED MID-BACK REGION AND 0, 20 MG/KG IN 0.1 ML PHOSPHATE BUFFER TO INTERSCAPULAR REGI, Dose: 0, 20 MG/KG IN 0.2 ML ACETONE TO SHAVED MID-BACK REGION AND 0, 20 MG/KG IN 0.1 ML PHOSPHATE BUFFER TO INTERSCAPULAR REGI, Tumor Site: Type of Lesion: SKIN: BASAL CELL CARCINOMA) is “active; positive”; the carcinogen call (Species: MOUSE, Strain/Sex: SWISS/FEMALE, Route: DERMAL, Dose: 0, 20 MG/KG IN 0.2 ML ACETONE 1/WK FOR 4 WK AFTER 6 MO ANIMALS WITHOUT TUMORS TREATED AGAIN 1/WK FOR 2 WK (STUDY DURATIO, Tumor Site: Type of Lesion: SKIN: BASAL CELL CARCINOMA) is “active; positive”; the carcinogen call (Species: MOUSE, Strain/Sex: SWISS/FEMALE, Route: SUBCUTANEOUS, Dose: 0, 20 MG/KG IN 0.1 ML PHOSPHATE BUFFER 1/WK FOR 4 WK AFTER 6 MO ANIMALS WITHOUT TUMORS TREATED AGAIN 1/WK FOR 2 WK (STUD, Tumor Site: Type of Lesion: SKIN: BASAL CELL CARCINOMA) was “active; positive”.

On to `CCCCCC[C@@H](O)C/C=C\CCCCCCCC(=O)O` (tested in a mixture with another compound), for which the carcinogen call reads like this: (Species: MOUSE, Strain/Sex: C57BL/FEMALE, Route: ORAL, Dose: 0, 5% IN DIET FOR 80 WKS (STUDY DURATION: 80 WKS)) “inactive; negative”; (Species: MOUSE, Strain/Sex: C57BL/MALE, Route: ORAL, Dose: 0, 5% IN DIET FOR 80 WKS (study duration: 80 WKS)) “inactive; negative”; (Species: RAT, Strain/Sex: WISTAR/FEMALE, Route: ORAL, Dose: 0, 5% IN DIET FOR 2 YR (STUDY DURATION: 2 YR)) “inactive; negative”; (Species: RAT, Strain/Sex: WISTAR/MALE, Route: ORAL, Dose: 0, 5% IN DIET FOR 2 YR (STUDY DURATION: 2 YEARS)) “inactive; negative”.

With `COc1cc2c(c3oc4cccc(O)c4c(=O)c13)[C@@H]1C=CO[C@@H]1O2`, the carcinogen call by setting is: (Species: MOUSE, Route: ORAL, Tumor Site: Type of Lesion: LUNG) “active; positive”; (Species: MOUSE, Strain/Sex: DBF1/FEMALE, Route: ORAL, Dose: 0, 30, 120 PPM IN DIET FOR 55 OR 51 WK, STUDY DURATION: 73 WK, Dose: 0, 30, 120 PPM IN DIET FOR 55 OR 51 WK, STUDY DURATION: 73 WK, Tumor Site: Type of Lesion: LIVER: HEMANGIOENDOTHELIOMA, ANGIOSARCOMA, LUNG: ADENOMA, INTEGUMENTARY SYSTEM (SUBCUTANEOUS TISSUE): ANGIOSARCOMA, Tumor Site: Type of Lesion: LIVER: HEMANGIOENDOTHELIOMA, ANGIOSARCOMA, LUNG: ADENOMA, INTEGUMENTARY SYSTEM (SUBCUTANEOUS TISSUE): ANGIOSARCOMA) “active; positive”; (Species: RAT, Route: DERMAL, Tumor Site: Type of Lesion: INTEGUMENTARY SYSTEM (SKIN)) “active; positive”; (Species: RAT, Route: ORAL, Tumor Site: Type of Lesion: LIVER) “active; positive”; (Species: RAT, Route: SUBCUTANEOUS, Tumor Site: Type of Lesion: INJECTION SITE) “active; positive”.

In the case of `COC(=O)c1ccc(C(=O)OC)cc1`, the carcinogen call runs as follows: (Species: MOUSE, Strain/Sex: B6C3F1/FEMALE, Route: ORAL, Dose: 0, 2500, 5000 PPM IN DIET FOR 103 WK (STUDY DURATION: 104-105 WK), Dose: 0, 2500, 5000 PPM IN DIET FOR 103 WK (STUDY DURATION: 104-105 WK)) “inactive; negative”; (Species: MOUSE, Strain/Sex: B6C3F1/MALE, Route: ORAL, Dose: 0, 2500, 5000 PPM IN DIET FOR 103 WK (STUDY DURATION: 104-105 WK), Dose: 0, 2500, 5000 PPM IN DIET FOR 103 WK (STUDY DURATION: 104-105 WK), Tumor Site: Type of Lesion: LUNG: ALVEOLAR/BRONCHIOLAR ADENOMA OR CARCINOMA) “equivocal”; (Species: RAT, Strain/Sex: F344/FEMALE, Route: ORAL, Dose: 0, 2500, 5000 PPM IN DIET FOR 103 WK (STUDY DURATION: 105-106 WK), Dose: 0, 2500, 5000 PPM IN DIET FOR 103 WK (STUDY DURATION: 105-106 WK)) “inactive; negative”; (Species: RAT, Strain/Sex: F344/MALE, Route: ORAL, Dose: 0, 2500, 5000 PPM IN DIET FOR 103 WK (STUDY DURATION: 105-106 WK), Dose: 0, 2500, 5000 PPM IN DIET FOR 103 WK (STUDY DURATION: 105-106 WK)) “inactive; negative”.
